# Assay results from publication PMC5343027, “Crystal Structure of the Chloroplastic Oxoene Reductase ceQORH from Arabidopsis thaliana” (Frontiers in Plant Science, 2017).
# Experiments:
# [1] = molecular target: T1, ceQORH (chloroplast envelope quinone oxidoreductase homolog) (Arabidopsis thaliana, UniProt Q9SV68); assay: X-ray crystal structure, […] Å, ternary complex with 13-KOTE; format: binding
# T1 sequence (Q9SV68 1-329): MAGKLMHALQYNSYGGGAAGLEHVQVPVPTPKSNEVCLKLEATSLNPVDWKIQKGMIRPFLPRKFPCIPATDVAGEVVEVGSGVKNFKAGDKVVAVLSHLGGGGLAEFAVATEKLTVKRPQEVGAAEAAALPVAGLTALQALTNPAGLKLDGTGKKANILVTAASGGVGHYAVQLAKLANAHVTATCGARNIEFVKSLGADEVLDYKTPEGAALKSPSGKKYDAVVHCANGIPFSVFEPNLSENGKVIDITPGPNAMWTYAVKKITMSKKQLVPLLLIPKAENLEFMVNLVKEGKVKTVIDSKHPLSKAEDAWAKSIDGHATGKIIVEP
# [2] = molecular target: T1, ceQORH (chloroplast envelope quinone oxidoreductase homolog); assay: enzyme inhibition kinetics ([…] nm) after […] s preincubation, […] trans-1, […] diphenyl-2-propenone; low-quality crystal structure with NADPH not used; format: biochemical
# [3] = molecular target: T1, ceQORH (chloroplast envelope quinone oxidoreductase homolog); assay: X-ray crystal structures, […] Å (binary) and […] Å (ternary with NADP+); format: binding
compound,measurement,setting,value
NC(=O)c1ccc[n+]([C@@H]2O[C@H](COP(=O)(O)OP(=O)(O)OC[C@H]3O[C@@H](n4cnc5c(N)ncnc54)[C@H](OP(=O)(O)O)[C@@H]3O)[C@@H](O)[C@H]2O)c1 [NADP^+],"X-ray crystal structure, 2.81 Å, ternary complex with 13-KOTE",[1],NADP^+ is bound at the interface of the two domains and the nicotinamide ring is in the vicinity of the catalytic site
"CCCCCC(=O)/C=C/C=C\CCCCCCCC(=O)O [13-KODE, 13-oxo-9(Z),11(E)-octadecadienoic acid]",IC50,[2],36 µM
"CC/C=C\CC(=O)/C=C/C=C/CCCCCCCC(=O)O [13-KOTE, 13-oxo-9(Z), 11(E), 15(Z)-octadecatrienoic acid]","X-ray crystal structures, 2.78 Å (binary) and 2.81 Å (ternary with NADP+)",[3],"apo-ceQORH (5A3V), ceQORH-13-KOTE (5A3J), and ceQORH-NADP^+-13-KOTE (5A4D)"
